Source: US9006191B2, “Silencing of polo-like kinase expression using interfering RNA” (Protiva Biotherapeutics, Inc., priority 2007, dated 2015)
“And” between values parts separate entries of the source, which are not always exact repeats. Equal entries are not always repeated.

Tests used:
[1] = SNALP particle size and polydispersity; type: physicochemical
HepG2 cells = experiment: HepG2 cell viability assay; type: cell-based, human; details: PLK1424 SNALP 0.31-5 nM, 72 h
Hep3B cells = details: SNALP-formulated siRNA, 72 h
Method: Cell Viability Assay: Cell viability of in vitro cell cultures was assessed using the commercial reagent CellTiter-Blue® (Promega Corp.; Madison, Wis.), a resazurin dye that is reduced by metabolically active cells to the fluorogenic product resorufin. Various cancer cell lines were cultured in vitro using standard tissue culture techniques. 48-72 hours after treatment with siRNA formulations and/or chemotherapy drugs, the CellTiter-Blue® reagent was added to the culture to quantify the metabolic activity of the cells, which is a measure of cell viability.
Cell Cultures. The cell lines Hep3B, HepG2, HT29, LS174T, and Neuro2a cells were obtained from the American Type Culture Collection (ATCC; Manassas, Va.) and cultured in the recommended basal media with 10% heat inactivated FBS and 1% penicillin-streptomycin. […] For in vitro siRNA activity assays, cell lines were cultured in 96 well plates in the presence of SNALP formulated siRNA. Cell viability was assessed after 72 h using the resazurin dye CellTiter Blue (Promega Corp).

IFN-α, IFIT1 mRNA = experiment: In vivo immune stimulation assay in CD1 ICR mice (plasma IFN-α, IFIT1 mRNA); design: species or system mouse; details: 1:57 PEG-cDMA SNALP, 3 mg/kg IV, 4 h
Method: In vivo immune stimulation assays. Animal studies were performed to test for the immunostimulatory activity of SNALP containing 2′OMe-modified PLK1424 siRNAs. Six-week-old female CD1 ICR mice were used in this study. […] The tolerability of the treatment regime was monitored by animal appearance and behavior.

[2] = test system: anti-PEG-lipid IgG and IgM antibodies; experiment: In vivo PEG-lipid antibody induction assay; design: species or system mouse; details: CD1 ICR mice, 1:57 SNALP IV at Days 0, 7, 14; plasma Days 7, 14, 21
Method: In vivo PEG-lipid antibody induction assays. Animal studies were performed to test for the induction of an antibody response to 2′OMe-modified PLK1424 siRNAs that were encapsulated in a 1:57 SNALP formulation containing the lipid conjugate PEG-cDMA. Six-week-old female CD1 ICR mice were used in this study. […] Mice were then sacrificed on Day 21. The tolerability of the treatment regime was monitored by animal appearance, behavior, and body weight. Anti-PEG-lipid IgG and IgM antibodies in plasma at Days 7, 14, and 21 were measured by ELISA.

IFIT1 mRNA, serum IFNα [3] = experiment: In vivo immune stimulation assay in Balb/c mice (IFIT1 mRNA, serum IFNα); details: SNALP-formulated siRNA IV, 4 h
Method: (§1) Balb/c mice (n=4 per group) were administered 2.5 mg/kg siRNA or lipid vehicle; serum IFNα (pg/mL) and IFIT1 mRNA (relative to GAPDH) from whole liver lysates were assessed after 4, 8, and 16 h by ELISA and bDNA assay, respectively. […] (b) Serum IFNα and (c) liver IFIT1 mRNA were assessed 4 h after administration (mean+SD, n=4).
(§2) SNALP-formulated Luc (unmodified) and the 2′OMe-modified Luc-U/U, PLK1424-2/A, PLK773-1/B, or KSP2263-U/U siRNA were administered at 2 mg/kg i.v. to Balb/C mice. (A) IFIT1 relative to GAPDH mRNA in liver and spleen was assessed at 4 h by bDNA analysis. […] Serum IFNα was assessed at 6 h by ELISA. […] Values represent mean+SD (n=4).
(§3) IFIT1 mRNA and serum cytokines were assessed 4-6 h after SNALP administration based on the approximate time of peak response for these markers. In these studies, SNALP-formulated native Luc siRNA (Table 6) was used as a positive control for immune stimulation.
(§4) In vivo immune stimulation assays. […] 6-8 week old Balb/C mice were obtained from Harlan and subject to a two week acclimation period prior to use. Mice were administered SNALP formulated siRNA (2 mg/kg) in PBS via standard intravenous injection in the lateral tail vein. Blood was collected by cardiac puncture and processed as plasma for cytokine analysis. Liver and spleen were collected into RNALater (Sigma Co.) for IFIT1 mRNA analysis.
(§5) Measurement of IFIT1 mRNA in mouse tissues. Murine liver and spleen were processed for bDNA assay to quantitate IFIT1 mRNA as described above. The IFIT1 probe set was specific to mouse IFIT1 mRNA (positions 4-499 of NM—008331) and the GAPDH probe set was specific to mouse GAPDH mRNA (positions 9-319 of NM—008084). Data is shown as the ratio of IFIT1 relative light units (RLU) to GAPDH RLU.
(§6) Cytokine ELISA. All cytokines were quantified using sandwich ELISA kits. These were mouse interferon-α (PBL Biomedical; Piscataway, N.J.) and human and mouse IL-6 (BD Biosciences; San Diego, Calif.).

IFIT1 mRNA, serum IFNα [4] = details: mouse, in vivo, iv
Method: as §1, §2, §3, §4, §5, §6

human PLK-1 mRNA = experiment: PLK-1 mRNA in Hep3B tumors (QuantiGene bDNA assay); type: in vivo; details: hepatic Hep3B tumors, single 2 mg/kg IV, 24 h
Method: The objectives of this study were as follows: • 1. To determine the level of mRNA silencing in established Hep3B liver tumors following a single IV administration of PLK1424 SNALP. • 2. To confirm the mechanism of mRNA silencing by detecting specific RNA cleavage products using RACE-PCR. • 3. To confirm induction of tumor cell apoptosis by histopathology.
A comparison of the effect of PEG-cDMA and PEG-cDSA 1:57 SNALPs on PLK-1 mRNA silencing was performed using established intrahepatic Hep3B tumors in scid/beige mice. A single 2 mg/kg dose of PLK-1 SNALP containing either PEG-cDMA or PEG-cDSA was administered intravenously. Liver/tumor samples were collected at 24 and 96 hours after SNALP treatment. Control=2 mg/kg Luc-cDMA SNALP at 24 hours.
Measurement of human PLK-1 and GAPDH mRNA in tumor tissues. […] Human PLK-1 and GAPDH mRNA were measured in tumor lystes by the QuantiGene bDNA assay (Panomics) as per the manufacturer's instructions (Quantigene 1.0 Manual). […] Data were expressed as mean PLK-1:GAPDH ratio+/−SD of individual animals. Tumor burden was assessed by homogenizing the complete liver from tumor bearing mice and measuring the total hGAPDH signal (RLU's) within the liver. Values were expressed as hGAPDH RLU/mg total liver.
Subcutaneous tumor models. […] The extent of PLK-1 mRNA knockdown was determined in the Hep3B tumors about 24 hours after SNALP administration.

| Substance | mean SNALP particle size [1] | cell viability (HepG2 cells) | cell viability / anti-proliferative activity (Hep3B cells) | IFIT1 induction (QG analysis) (IFN-α, IFIT1 mRNA) | IgG / IgM antibody response against PEG-lipid (PEG-cDMA) [2] | IFIT1 mRNA induction in liver and spleen (IFIT1 mRNA, serum IFNα [3]) | serum IFNα / serum cytokine response (IFIT1 mRNA, serum IFNα [4]) | tumor hPLK-1 mRNA, % of levels in PBS-treated mice (human PLK-1 mRNA) [%] |
| --- | --- | --- | --- | --- | --- | --- | --- | --- |
| PLK1424: siRNA to human PLK-1, SEQ ID NO:1/2 (UU overhang form 211/212) (chain 1 AGAUCACCCUCCUUAAAUA; chain 2 UAUUUAAGGAGGGUGAUCU; further chemistry not given here) | 83 nm and 72 nm | potent activity | potent activity | – | – | – | – | – |
| PLK1424-2/A: 2′OMe-modified PLK1424 duplex, SEQ ID NO:214/215 (same SEQ IDs as PLK1424 1/3 of Table 11) (chain 1 AGANCACCCNCCUNAAANAUU; chain 2 UAUUUAANGAGGGUGANCUUU; siRNA; 2'-O-methyl modifications at selected positions, key for n not given here) | – | – | – | no significant IFIT1 induction above that of empty SNALP | substantially less immunogenic than SNALP containing the corresponding unmodified PLK1424 siRNA sequence | no measurable IFNα or increase in IFIT1 mRNA in the liver or spleen | no measurable IFNα | 45 |
